The target in one experiment is T1, NAMPT (Homo sapiens, UniProt P43490).
T1 construct: His tag; host or cells: E. coli
Put plainly: Biochemical inhibition assay: NAMPT enzymatic reaction, NMN quantified by mass spectrometry. The following applies: read-out: Biochem IC50. Put shortly:
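Inhibition of E. coli-expressed His-tagged human NAMPT, measured as NMN formation by mass spectrometry after a 30 min room-temperature reaction containing 1 μM NAM, 100 μM PRPP and 2.5 mM ATP.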

In the next experiment the test system is A2780 cells. The experiment in a line: In-vitro cell proliferation assay (SRB), A2780 cells. Format: cell-based. The following applies: Homo sapiens, A2780, 72 h, A2780 cells, 72 hours, read-out: A2780 IC50. Put shortly: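 SRB read-out: 6% TCA fix 1 h at 4° C., stain, Tris solubilize, A570. Media-only background subtracted; % inhibition from two compound concentrations.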

SMILES strings stand for the structures. Like-named read-outs stand apart in the source and are kept apart here.

T1 sequence (P43490 whole entry): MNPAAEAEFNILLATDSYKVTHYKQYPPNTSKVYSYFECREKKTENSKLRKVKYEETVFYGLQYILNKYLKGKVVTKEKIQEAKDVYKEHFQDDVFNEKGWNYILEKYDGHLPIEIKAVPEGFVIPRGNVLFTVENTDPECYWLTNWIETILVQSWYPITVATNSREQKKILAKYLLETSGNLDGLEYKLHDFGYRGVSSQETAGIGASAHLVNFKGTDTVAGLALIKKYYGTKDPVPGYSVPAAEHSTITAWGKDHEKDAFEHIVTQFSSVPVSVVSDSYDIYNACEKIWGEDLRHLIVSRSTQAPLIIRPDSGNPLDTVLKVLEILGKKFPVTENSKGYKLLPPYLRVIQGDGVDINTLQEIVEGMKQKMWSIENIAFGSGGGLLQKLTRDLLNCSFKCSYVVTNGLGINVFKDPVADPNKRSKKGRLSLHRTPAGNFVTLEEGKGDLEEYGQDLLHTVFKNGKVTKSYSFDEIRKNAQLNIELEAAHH

In the case of `O=C(NCc1ccc(S(=O)(=O)c2cccc3cccnc23)cc1)c1cnc2[nH]ncc2c1` [N-{[4-(quinoline-8-sulfonyl)phenyl]methyl}-1H-pyrazolo[3,4-b]pyridine-5-carboxamide], the results for the half-maximal inhibitory concentration (IC50) at NAMPT (NAMPT enzymatic assay) and in the experiment with A2780 cells (SRB) were 45.5 nM and 23.6 nM, respectively.
As for `CCc1cccc(S(=O)(=O)c2ccc(CNC(=O)c3ccc4nccn4c3)cc2)c1` [N-({4-[(3-ethylbenzene)sulfonyl]phenyl}methyl)imidazo[1,2-a]pyridine-6-carboxamide], the IC50 at NAMPT (NAMPT enzymatic reaction) was 4.83 nM; with A2780 cells (SRB) it was 3.23 nM.
Consider `O=C(NCc1ccc(S(=O)(=O)c2cnn(-c3cccc(Cl)c3)c2)cc1)c1cc2ccncc2s1` [N-({4-[1-(3-chlorophenyl)-1H-pyrazole-4-sulfonyl]phenyl}methyl)thieno[2,3-c]pyridine-2-carboxamide], for which the figures for the half-inhibitory concentration (IC50) on NAMPT (NAMPT enzymatic assay) and in the experiment on A2780 cells (SRB) were 4.1 nM and 13.9 nM, respectively.
As to `Cc1nc(-c2cccc(S(=O)(=O)c3ccc(CNC(=O)c4cnc5nccn5c4)cc3)c2)no1`, the 50% inhibitory concentration (IC50) at NAMPT (NAMPT enzymatic assay) stood at 2.8 nM; with A2780 cells (SRB) it was 2.3 nM.
Take `COc1ccc(F)c(S(=O)(=O)c2ccc(CNC(=O)c3cnc4nccn4c3)cc2)c1`: the results for the IC50 at NAMPT (NAMPT enzymatic reaction) and in the experiment with A2780 cells (SRB) were 10.4 nM and 62.9 nM, respectively.
As to `CC(=O)c1ccc(S(=O)(=O)c2ccc(CNC(=O)c3cc4ccncc4s3)cc2)cc1` [N-({4-[(4-acetylbenzene)sulfonyl]phenyl}methyl)thieno[2,3-c]pyridine-2-carboxamide], the IC50 at NAMPT (NAMPT enzymatic reaction) was found to be 4 nM; with A2780 cells (SRB assay) it was 2.5 nM.
In the case of `COc1cccc(S(=O)(=O)c2ccc(CNC(=O)c3cc4ccncc4o3)cc2)c1OC`, the half-inhibitory concentration (IC50) on NAMPT (NAMPT enzymatic reaction) amounted to 9.3 nM; in the experiment on A2780 cells (SRB), 13.6 nM.
With `O=C(NCc1ccc(S(=O)(=O)c2cc(Cl)cc(CO)c2)cc1)c1cnc2nccn2c1`, the IC50 is 3.4 nM on NAMPT (NAMPT enzymatic assay) and 11.4 nM with A2780 cells (SRB).
Regarding `O=C(NCc1ccc(S(=O)(=O)c2cccc(Cl)c2)cc1)c1cc2ccncc2o1` [N-({4-[{3-chlorobenzene)sulfonyl]phenyl}methyl)furo[2,3-c]pyridine-2-carboxamide], the IC50 at NAMPT (NAMPT enzymatic reaction) came to 6 nM; in the experiment with A2780 cells (SRB) it was 3.3 nM.
Taken in the same sequence, the figures for `Cc1cccc(S(=O)(=O)c2ccc(CNC(=O)c3ccc4nccn4c3)cc2)c1F` were 7.5 nM and 3.3 nM.
Consider `CCCCOc1cccc(S(=O)(=O)c2ccc(CNC(=O)c3ccc4nccn4c3)cc2)c1`, for which the IC50 came out at 4.7 nM on NAMPT (NAMPT enzymatic reaction) and 18 nM in the experiment on A2780 cells (SRB).
In the case of `O=C(NCc1ccc(S(=O)(=O)c2csc(-c3cccc(F)c3)n2)cc1)c1cc2ccncc2o1` [N-({4-[2-(3-fluorophenyl)-1,3-thiazole-4-sulfonyl]phenyl}methyl)furo[2,3-c]pyridine-2-carboxamide], the half-maximal inhibitory concentration (IC50) came to 11.9 nM on NAMPT (NAMPT enzymatic assay) and 50.4 nM in the experiment on A2780 cells (SRB).
With `Cc1ccc(F)cc1S(=O)(=O)c1ccc(CNC(=O)c2ccc3nccn3c2)cc1` [N-({4-[(5-fluoro-2-methylbenzene)sulfonyl]phenyl}methyl)imidazo[1,2-a]pyridine-6-carboxamide], the IC50 on NAMPT (NAMPT enzymatic reaction) worked out at 12.6 nM; with A2780 cells (SRB) it was 22.9 nM.
As for `COc1ccc(OC(F)(F)F)cc1S(=O)(=O)c1ccc(CNC(=O)c2ccc3nccn3c2)cc1`, the IC50 at NAMPT (NAMPT enzymatic assay) is 67.7 nM; with A2780 cells (SRB), 14.4 nM.
Consider `CCCOc1ccc(S(=O)(=O)c2ccc(CNC(=O)c3cc4cnccc4[nH]3)cc2)cc1F`, for which the IC50 at NAMPT (NAMPT enzymatic reaction) stood at 30.9 nM; in the experiment with A2780 cells (SRB), 10.4 nM.
For `COc1ccccc1S(=O)(=O)c1ccc(CNC(=O)c2cnc3[nH]ncc3c2)cc1` [N-({4-[(2-methoxybenzene)sulfonyl]phenyl}methyl)-1H-pyrazolo[3,4-b]pyridine-5-carboxamide], the values for the half-maximal inhibitory concentration (IC50) on NAMPT (NAMPT enzymatic reaction) and in the experiment with A2780 cells (SRB) were 68.3 nM and 61.8 nM, respectively.
In the case of `CCC[C@@H](O)c1ccc(S(=O)(=O)c2ccc(CNC(=O)c3cc4ccncc4o3)cc2)cc1`, the IC50 at NAMPT (NAMPT enzymatic assay) was 28.5 nM; in the experiment on A2780 cells (SRB) it was 12.2 nM.
Consider `Cc1ccc(S(=O)(=O)c2ccc(CNC(=O)c3cc4ccncc4o3)cc2)cc1F`, for which the IC50 at NAMPT (NAMPT enzymatic reaction) is 14 nM; in the experiment on A2780 cells (SRB), 3.3 nM.
Turning to `CCCOc1ccc(S(=O)(=O)c2ccc(CNC(=O)c3cnc4nccn4c3)cc2)cc1F`, the values for the IC50 at NAMPT (NAMPT enzymatic reaction) and with A2780 cells (SRB) were 2.7 nM and 3.3 nM, respectively.
Taken in the same sequence, the figures for `CCCCOc1ccc(S(=O)(=O)c2ccc(CNC(=O)c3cc4ccncc4o3)cc2)cc1Cl` were 4.7 nM and 10 nM.
As to `COc1ccc(OC)c(S(=O)(=O)c2ccc(CNC(=O)c3cnc4[nH]ncc4c3)cc2)c1` [N-({4-[(2,5-dimethoxybenzene)sulfonyl]phenyl}methyl)-1H-pyrazolo[3,4-b]pyridine-5-carboxamide], the 50% inhibitory concentration (IC50) stood at 39.8 nM on NAMPT (NAMPT enzymatic reaction) and 24.8 nM in the experiment on A2780 cells (SRB).
In the case of `COc1ccc(C(C)(C)C)cc1S(=O)(=O)c1ccc(CNC(=O)c2cc3ccncc3s2)cc1` [N-({4-[(5-tert-butyl-2-methoxybenzene)sulfonyl]phenyl}methyl)thieno[2,3-c]pyridine-2-carboxamide], the results for the half-inhibitory concentration (IC50) at NAMPT (NAMPT enzymatic reaction) and with A2780 cells (SRB assay) were 15 nM and 4.6 nM, respectively.
With `O=C(NCc1ccc(S(=O)(=O)c2ccc(C(F)(F)F)cn2)cc1)c1cc2ccncc2s1` [N-({4-[5-(trifluoromethyl)pyridine-2-sulfonyl]phenyl}methyl)thieno[2,3-c]pyridine-2-carboxamide], the half-inhibitory concentration (IC50) at NAMPT (NAMPT enzymatic assay) was 23.5 nM; with A2780 cells (SRB), 100 to 1000 nM.
For `O=C(NCc1ccc(S(=O)(=O)c2ccc(C(F)(F)F)cc2C(F)(F)F)cc1)c1cc2ccncc2s1` [N-[(4-{[2,4-bis(trifluoromethyl)benzene]sulfonyl}phenyl)methyl]thieno[2,3-c]pyridine-2-carboxamide], the IC50 stood at 21.5 nM at NAMPT (NAMPT enzymatic assay) and 4.3 nM in the experiment with A2780 cells (SRB).
Taken in the same sequence, the figures for `O=C(NCc1ccc(S(=O)(=O)c2cc(CO)ccc2Cl)cc1)c1cc2cnccc2[nH]1` were 8.3 nM and 26.2 nM.
Taken in the same sequence, the figures for `Cc1cc(Cl)cnc1S(=O)(=O)c1ccc(CNC(=O)c2ccc3nccn3c2)cc1` [N-{[4-(5-chloro-3-methylpyridine-2-sulfonyl)phenyl]methyl}imidazo[1,2-a]pyridine-6-carboxamide] were 18.8 nM and 8 nM.
For `Cc1cc(F)cc(S(=O)(=O)c2ccc(CNC(=O)c3cnc4[nH]ncc4c3)cc2)c1`, the half-inhibitory concentration (IC50) at NAMPT (NAMPT enzymatic reaction) was found to be 9.5 nM; in the experiment with A2780 cells (SRB) it was 5.6 nM.
Consider `CCOCc1ccccc1S(=O)(=O)c1ccc(CNC(=O)c2cnc3[nH]ncc3c2)cc1`, for which the IC50 at NAMPT (NAMPT enzymatic assay) worked out at 52 nM; in the experiment on A2780 cells (SRB) it was 61.2 nM.
Consider `O=C(NCc1ccc(S(=O)(=O)c2cnc3ccccc3c2)cc1)c1cc2cnccc2[nH]1` [N-{[4-(quinoline-3-sulfonyl)phenyl]methyl}-1H-pyrrolo[3,2-c]pyridine-2-carboxamide], for which the half-inhibitory concentration (IC50) on NAMPT (NAMPT enzymatic assay) worked out at 16.3 nM; with A2780 cells (SRB), 2.9 nM.
As for `O=C(NCc1ccc(S(=O)(=O)c2ccc(F)c(C(F)(F)F)c2)cc1)c1cc2cnccc2[nH]1`, the figures for the IC50 at NAMPT (NAMPT enzymatic assay) and in the experiment with A2780 cells (SRB) were 16.4 nM and 4.3 nM, respectively.
Taken in the same sequence, the figures for `CN1CCN(c2ccc(S(=O)(=O)c3ccc(CNC(=O)c4cc5cnccc5[nH]4)cc3)cn2)CC1` [N-({4-[6-(4-methylpiperazin-1-yl)pyridine-3-sulfonyl]phenyl}methyl)-1H-pyrrolo[3,2-c]pyridine-2-carboxamide] were 6 nM and 0.6 nM.
Regarding `COc1ccc2cc(S(=O)(=O)c3ccc(CNC(=O)c4cc5ccncc5s4)cc3)ccc2c1` [N-{[4-(6-methoxynaphthalene-2-sulfonyl)phenyl]methyl}thieno[2,3-c]pyridine-2-carboxamide], the results for the IC50 on NAMPT (NAMPT enzymatic assay) and with A2780 cells (SRB) were 1.5 nM and 3.3 nM, respectively.
The like results for `N#CC1(c2ccc(S(=O)(=O)c3ccc(CNC(=O)c4ccc5nccn5c4)cc3)cc2)CCCC1` were, in that order, 10.7 nM and 3 nM.
As for `COc1ccc(C(F)(F)F)cc1NS(=O)(=O)c1ccc(CNC(=O)c2cc3cnccc3[nH]2)cc1` [N-[(4-{[2-methoxy-5-(trifluoromethyl)phenyl]sulfamoyl}phenyl)methyl]-1H-pyrrolo[3,2-c]pyridine-2-carboxamide], the half-maximal inhibitory concentration (IC50) at NAMPT (NAMPT enzymatic reaction) amounted to 0.5 nM; with A2780 cells (SRB assay), 1.6 nM.
As to `O=C(NCc1ccc(S(=O)(=O)c2ccc(F)cc2C(F)(F)F)cc1)c1cc2ccncc2s1`, the IC50 is 6.4 nM on NAMPT (NAMPT enzymatic assay) and 14.3 nM with A2780 cells (SRB).
Regarding `O=C(NCc1ccc(S(=O)(=O)N2CCCCC2)cc1)c1cc2cccnc2s1` [N-{[4-(piperidine-1-sulfonyl)phenyl]methyl}thieno[2,3-b]pyridine-2-carboxamide], the IC50 stood at 6150 nM at NAMPT (NAMPT enzymatic reaction) and 14000 nM with A2780 cells (SRB assay).
Take `O=C(NCc1ccc(S(=O)(=O)c2ccc(Cl)cc2C(F)(F)F)cc1)c1cc2ccncc2o1`: the IC50 was 9.8 nM on NAMPT (NAMPT enzymatic assay) and 25.4 nM in the experiment with A2780 cells (SRB).
Consider `O=C(COc1cccnc1)Nc1ccc(S(=O)(=O)N2CCCCC2)cc1` [N-[4-(piperidine-1-sulfonyl)phenyl]-2-(pyridin-3-yloxy)acetamide], for which the IC50 stood at 1.1 nM at NAMPT (NAMPT enzymatic reaction) and 6.6 nM with A2780 cells (SRB assay).
With `CCCCc1ccc(S(=O)(=O)c2ccc(CNC(=O)c3cc4cnccc4[nH]3)cc2)cc1`, the 50% inhibitory concentration (IC50) at NAMPT (NAMPT enzymatic reaction) worked out at 14.6 nM; in the experiment with A2780 cells (SRB), 35.8 nM.
The like results for `O=C(NCc1ccc(S(=O)(=O)c2cccc(Cl)c2)cc1)c1ccc2nccn2c1` [N-({4-[(3-chlorobenzene)sulfonyl]phenyl}methyl)imidazo[1,2-a]pyridine-6-carboxamide] were, in that order, 9.08 nM and 3.07 nM.
For the compound `CCCCOc1ccc(S(=O)(=O)c2ccc(CNC(=O)c3ccc4nccn4c3)cc2)cc1F`, the IC50 at NAMPT (NAMPT enzymatic reaction) was found to be 6.2 nM; in the experiment with A2780 cells (SRB), 3.1 nM.
`CCNC(=O)c1ccc(S(=O)(=O)c2ccc(CNC(=O)c3cc4ccncc4s3)cc2)cc1`: the IC50 was 1.5 nM at NAMPT (NAMPT enzymatic assay) and 3.3 nM in the experiment on A2780 cells (SRB).
The like results for `O=C(NCc1ccc(S(=O)(=O)c2cc(O)ccc2OC(F)(F)F)cc1)c1cc2ccncc2o1` were, in that order, 6.4 nM and 11.5 nM.
